Source: article PMC12368815, “Targeting Cancer with New Morpholine-Benzimidazole-Oxadiazole Derivatives: Synthesis, Biological Evaluation, and Computational Insights” (ACS Omega, 2025)

What was measured:
[1] = test system: HT-29 cell line (human colon cancer cell line); test: MTT cytotoxicity assay on HT-29 colon cancer cells; assay type: cell-based; details: for IC50: Homo sapiens, HT-29, MTT, mean of four independent assays, read-out: IC50 HT29; for Selectivity index (SI): NIH3T3 versus HT29
Experimental: (§1) Compounds 5a–5j were evaluated for their anticancer activity via the MTT assay against the HT-29 cell line. […] Both the synthesized compounds and standards were tested across concentrations from 1000 to 0.49 μg/mL.
(§2) The cytotoxic effects of the compounds on colon cancer (HT29, ATCC HTB-38) and normal healthy fibroblast (NIH3T3, ATCC CRL-1658) cell lines were evaluated using the MTT assay. Based on the cytotoxicity data 5c, 5h and 5j stand out in terms of activity.

[2] = test system: NIH3T3 (healthy normal fibroblast cells); test: MTT cytotoxicity assay on NIH3T3 normal fibroblasts; assay type: cell-based; details: Mus musculus, mean of four independent assays
Experimental: as §1, §2

VEGFR-2 enzyme = molecular target: T1, VEGFR-2 enzyme (Homo sapiens, UniProt P35968); test: In vitro VEGFR-2 enzyme inhibition assay kit; assay type: biochemical
T1 construct: purchased
T1 sequence (P35968 20-1356): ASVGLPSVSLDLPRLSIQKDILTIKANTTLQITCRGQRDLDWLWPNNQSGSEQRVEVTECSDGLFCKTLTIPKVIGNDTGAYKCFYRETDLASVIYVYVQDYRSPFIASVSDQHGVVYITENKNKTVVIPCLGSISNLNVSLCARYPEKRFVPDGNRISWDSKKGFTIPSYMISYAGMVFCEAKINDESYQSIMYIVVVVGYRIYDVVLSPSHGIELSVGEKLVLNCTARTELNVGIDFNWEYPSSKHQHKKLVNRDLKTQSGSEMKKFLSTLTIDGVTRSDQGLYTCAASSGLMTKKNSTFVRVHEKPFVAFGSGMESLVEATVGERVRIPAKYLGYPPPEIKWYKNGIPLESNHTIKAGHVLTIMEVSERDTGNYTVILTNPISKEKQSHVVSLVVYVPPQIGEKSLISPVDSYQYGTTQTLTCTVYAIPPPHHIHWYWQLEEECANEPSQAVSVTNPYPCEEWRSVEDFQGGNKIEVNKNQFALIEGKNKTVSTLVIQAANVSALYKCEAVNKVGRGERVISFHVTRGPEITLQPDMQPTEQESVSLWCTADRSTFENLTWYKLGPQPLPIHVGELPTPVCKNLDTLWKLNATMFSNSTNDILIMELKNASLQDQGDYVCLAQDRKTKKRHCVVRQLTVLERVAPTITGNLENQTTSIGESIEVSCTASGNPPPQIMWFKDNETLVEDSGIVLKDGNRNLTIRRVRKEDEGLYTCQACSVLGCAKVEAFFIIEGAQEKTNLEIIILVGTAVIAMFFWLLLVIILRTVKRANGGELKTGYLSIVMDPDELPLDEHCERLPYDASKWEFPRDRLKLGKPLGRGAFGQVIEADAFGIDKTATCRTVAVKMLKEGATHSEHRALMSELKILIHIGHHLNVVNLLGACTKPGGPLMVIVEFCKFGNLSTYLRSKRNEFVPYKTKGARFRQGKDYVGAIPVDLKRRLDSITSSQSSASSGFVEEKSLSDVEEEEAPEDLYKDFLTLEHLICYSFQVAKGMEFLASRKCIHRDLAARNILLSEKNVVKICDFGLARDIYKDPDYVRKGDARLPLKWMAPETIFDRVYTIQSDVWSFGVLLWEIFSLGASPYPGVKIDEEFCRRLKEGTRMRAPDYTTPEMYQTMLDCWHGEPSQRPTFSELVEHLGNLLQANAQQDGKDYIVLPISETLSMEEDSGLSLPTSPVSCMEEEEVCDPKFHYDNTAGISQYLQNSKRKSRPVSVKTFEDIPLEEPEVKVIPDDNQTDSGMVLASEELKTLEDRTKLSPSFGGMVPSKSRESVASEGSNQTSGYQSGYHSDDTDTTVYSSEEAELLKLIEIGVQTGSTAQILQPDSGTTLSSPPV
Experimental: The inhibitory effects of the synthesized compounds on the VEGFR-2 enzyme were assessed using an in vitro assay kit (Table ).

HT-29 cells = test: Annexin V-FITC/PI flow cytometry apoptosis analysis; assay type: cell-based, human; details: HT29, compound at IC50 concentration, 24 h, mean of two repetitions
From the text: Programmed cell death-apoptosis is a normal physiological process in healthy organisms that eliminates cells no longer needed. During apoptosis, phosphatidylserine (PS) in the cell membrane is translocated to the outer layer. The Annexin V protein included in the kit binds to this externalized PS, enabling its detection with FITC, a fluorescent marker. Annexin V can also bind to necrotic cells. In such cases, the cells are identified using “Ethidium Homodimer III (EthD-III) (or propidium iodide, PI)”. Flow cytometric assay kits use double-staining protocols to assess apoptosis by detecting differences in cell morphology through the binding efficiency of the Annexin–V complex to PS on the cell surface. , Apoptotic, Necrotic, and Healthy Cells Detection Kit [Available from (Apoptic necrotic kit)] used during flow cytometer analysis.
Briefly, HT-29 cells were plated in six-well plates following the manufacturer’s guidelines and exposed to the compounds at their IC50 concentrations for 24 h. Following treatment, cell suspensions were centrifuged at 1200 rpm for 5 min, and the resulting pellets were rinsed twice with 1 mL of cold phosphate-buffered saline. The assay kits were used according to the manufacturer’s instructions by transferring cells to the appropriate buffer solutions. For each sample, at least 10 000 cells were evaluated. Cell population fractions in various quadrants and gates were determined using quadrant and gate statistical analysis, with settings optimized based on comparison to the untreated control group.
To further investigate the mechanism underlying its anticancer effect, the ability of compound 5h to induce apoptosis was assessed using the Annexin V-FITC/PI dual staining method. The results are presented in Figure , where the data are shown in four quadrants corresponding to different cell populations: live (living) cells correspond to Q1-LL, early apoptotic cells to Q1-LR, late apoptotic cells to Q1-UR, and necrotic cells to Q1-UL.

Row | IC50 (VEGFR-2 enzyme) [µM] | Compound | IC50 [1] [µM] | Selectivity index (SI) [1] | IC50 [2] [µM] | fold higher cytotoxic activity than compound 5e ([1]; HT-29, compared to 5e) | early apoptosis (HT-29 cells) [%] | late apoptosis (HT-29 cells) [%] | necrosis (HT-29 cells) [%]
1 | – | O=C(CSc1nnc(-c2ccc3nc(-c4ccc(N5CCOCC5)cc4)[nH]c3c2)o1)c1ccccc1 [5a, 2-(5-(2-(4-Morpholinophenyl)-1H-benzo[d]imidazol-6-yl)-1,3,4-oxadiazol-2-ylthio)-1-phenylethan-1-One] | 135 ± 3.37 | 1.42 | 193 ± 7.56 | – | – | – | –
2 | – | Cc1ccc(C(=O)CSc2nnc(-c3ccc4nc(-c5ccc(N6CCOCC6)cc5)[nH]c4c3)o2)cc1 [5b, 2-(5-(2-(4-Morpholinophenyl)-1H-benzo[d]imidazol-6-yl)-1,3,4-oxadiazol-2-ylthio)-1-(p-tolyl) Ethan-1-One] | 22.7 ± 2.39 | 0.46 | 10.5 ± 2.17 | – | – | – | –
3 | 0.918 ± 0.027 | COc1ccc(C(=O)CSc2nnc(-c3ccc4nc(-c5ccc(N6CCOCC6)cc5)[nH]c4c3)o2)cc1 [5c, 1-(4-Methoxyphenyl)-2-(5-(2-(4-morpholinophenyl)-1H-benzo[d]imidazol-6-yl-1,3,4-oxadiazol-2-yl) Thio) Ethan-1-One] | 17.8 ± 1.77 | 0.59 | 10.4 ± 0.205 | – | – | – | –
4 | – | O=C(CSc1nnc(-c2ccc3nc(-c4ccc(N5CCOCC5)cc4)[nH]c3c2)o1)c1ccc(F)cc1 [5d, 1-(4-Fluorophenyl)-2-((5-(2-(4-morpholinophenyl)-1H-benzo[d]imidazol-6-yl)-1,3,4-oxadiazol-2-yl) Thio) Ethan-1-One] | 175 ± 5.92 | 0.93 | 163 ± 3.75 | – | – | – | –
5 | – | O=C(CSc1nnc(-c2ccc3nc(-c4ccc(N5CCOCC5)cc4)[nH]c3c2)o1)c1ccc(Cl)cc1 [5e, 1-(4-Chlorophenyl)-2-((5-(2-(4-morpholinophenyl)-1H-benzo[d]imidazol-6-yl)-1,3,4-oxadiazol-2-yl) Thio) Ethan-1-One] | 104 ± 4.53 | 5.12 | 531 ± 8.1 | – | – | – | –
6 | – | N#Cc1ccc(C(=O)CSc2nnc(-c3ccc4nc(-c5ccc(N6CCOCC6)cc5)[nH]c4c3)o2)cc1 [5f, 4-(2-(5-(2-(4-Morpholinophenyl)-1H-benzo[d]imidazol-6-yl-1,3,4-oxadiazol-2-yl) Thio) Acetyl) Benzonitrile] | 30.2 ± 1.16 | 0.49 | 14.7 ± 0.818 | – | – | – | –
7 | – | O=C(CSc1nnc(-c2ccc3nc(-c4ccc(N5CCOCC5)cc4)[nH]c3c2)o1)c1ccc([N+](=O)[O-])cc1 [5g, 2-(5-(2-(4-Morpholinophenyl)-1H-benzo[d]imidazol-6-yl-1,3,4-oxadiazol-2-yl)thio)-1-(4-nitrophenyl) Ethan-1-One] | 260 ± 8.68 | – | > 1000 | – | – | – | –
8 | 0.049 ± 0.002 | O=C(CSc1nnc(-c2ccc3nc(-c4ccc(N5CCOCC5)cc4)[nH]c3c2)o1)c1ccc(Cl)c(Cl)c1 [5h, 1-(3,4-Dichlorophenyl)-2-((5-(2-(4-morpholinophenyl)-1H-benzo[d]imidazol-6-yl)-1,3,4-oxadiazol-2-yl) Thio) Ethan-1-One] | 3.1 ± 0.979 | 4.88 | 15.2 ± 0.987 | approximately 33 fold | 2.05 ± 0.25 | 16.95 ± 2.85 | 12.2 ± 2.1
9 | – | Cc1ccc(C(=O)CSc2nnc(-c3ccc4nc(-c5ccc(N6CCOCC6)cc5)[nH]c4c3)o2)c(C)c1 [5i, 1-(2,4-Dimethylphenyl)-2-((5-(2-(4-morpholinophenyl)-1H-benzo[d]imidazol-6-yl)-1,3,4-oxadiazol-2-yl) Thio) Ethan-1-One] | 72.1 ± 4.61 | 2.05 | 148 ± 3.99 | – | – | – | –
10 | 0.098 ± 0.011 | O=C(CSc1nnc(-c2ccc3nc(-c4ccc(N5CCOCC5)cc4)[nH]c3c2)o1)c1ccc(Br)cc1 [5j, 1-(4-Bromophenyl)-2-((5-(2-(4-morpholinophenyl)-1H-benzo[d]imidazol-6-yl)-1,3,4-oxadiazol-2-yl) Thio) Ethan-1-One] | 9.66 ± 0.149 | 0.47 | 4.55 ± 0.763 | – | – | – | –
11 | – | CNC(=O)c1cc(Oc2ccc(NC(=O)Nc3ccc(Cl)c(C(F)(F)F)c3)cc2)ccn1 [Sorafenib, reference compound] | 2.92 ± 0.214 | – | 30.13 ± 0.147 | – | – | – | –
